From PubChem BioAssay (NCI)
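Protocol summary: plate cells (96-well), add compound at 5 concentrations, incubate 48 h, interpolate endpoints linearly. The concentration for 50% growth inhibition is given as GI50. Definition used: TGI = concentration required for complete inhibition of growth.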

Legend:
Test in all cases: NCI tumour cell line growth inhibition, 48 h
HOP-92 NSCLC = system: HOP-92 NSCLC
SF-539 CNS = system: SF-539 CNS
UACC-257 melanoma = system: UACC-257 melanoma
SW-620 colon = system: SW-620 colon
UACC-62 melanoma = system: UACC-62 melanoma
MOLT-4 leukemia = system: MOLT-4 leukemia
RPMI-8226 leukemia = system: RPMI-8226 leukemia
EKVX NSCLC = system: EKVX NSCLC
SK-MEL-28 melanoma = system: SK-MEL-28 melanoma
NCI-H460 lung = system: NCI-H460 lung

SMILES	TGI (HOP-92 NSCLC) [µM]	TGI (SF-539 CNS) [µM]	TGI (UACC-257 melanoma) [µM]	TGI (SW-620 colon) [µM]	TGI (UACC-62 melanoma) [µM]	TGI (MOLT-4 leukemia) [µM]	TGI (RPMI-8226 leukemia) [µM]	TGI (EKVX NSCLC) [µM]	TGI (SK-MEL-28 melanoma) [µM]	GI50 (SF-539 CNS) [µM]	GI50 (UACC-257 melanoma) [µM]	GI50 (SW-620 colon) [µM]	GI50 (UACC-62 melanoma) [µM]	GI50 (EKVX NSCLC) [µM]	GI50 (NCI-H460 lung) [µM]	TGI (NCI-H460 lung) [µM]	GI50 (SK-MEL-28 melanoma) [µM]	GI50 (HOP-92 NSCLC) [µM]	GI50 (MOLT-4 leukemia) [µM]	GI50 (RPMI-8226 leukemia) [µM]
Cc1ccccc1NC(=O)C1C(=O)N(c2ccccc2C)C(=O)/C1=N\NC(N)=S (centres undefined)	> 100	> 100	> 100	> 100	> 100	> 100	> 100	> 100	> 100											
CCCCn1c(-c2ccc(C(=O)O/N=C(\N)c3ccc4c(c3)OCO4)cc2)nc(-c2ccccc2)c1-c1ccccc1		10.2	> 100	> 100	8.93			7.74	> 100	3	6.43	3.81	2.72	2.07	2.29	5.62	5.69			
CCCCN(CC)CC(C(C)=O)c1c(O)c2ccccc2oc1=O (centres undefined)		> 100	> 100	> 100	> 100	> 100	> 100	> 100	> 100							> 100				
CC(C)(Oc1ccc(/C=C/C(=O)c2ccc(Cl)cc2)cc1)C(=O)Nc1c(Cl)cccc1Cl	91.5	28.1	99.6	27.8	38	96.5		> 100	30.3							98.3				
c1ccc2[nH]c(-c3ccc(Nc4nc(N5CCCCC5)nc(N5CCOCC5)n4)cc3)nc2c1	4.32	5.75		5.87		7.89	6.58	> 100	4.02	2.14		2.34		2.68	2.44	6.18	1.8	1.99	2.73	2.23
C/C(=N/NC(=O)C[N+](C)(C)C)C(CN(C)C)C(=O)Nc1ccccc1 (centres undefined)		> 100	> 100	> 100	> 100	> 100		> 100	> 100							> 100				
N#Cc1ccc(NC(=O)C(CC(=O)OCc2ccccc2)NC(=O)OCc2ccccc2)cc1 (centres undefined)	> 100		> 100	> 100	> 100	> 100	> 100	> 100	> 100		> 100	> 100	> 100	> 100	> 100	> 100	> 100	> 100	> 100	> 100
Cn1c2c(c3ccccc31)CCN(CCN1CCN(c3cccc(Cl)c3)CC1)C2=O	77.1	> 100		> 100	> 100	> 100	> 100	> 100	> 100											
COc1ccc2[nH]c3c(c2c1)[C@H](C)C[C@@H]1C(=O)N(c2ccccc2)C(=O)[C@H]31	42.6	41	> 100	> 100	> 100	56.6		> 100	> 100							> 100				
CCOC(=O)c1cc2c3c(c(O)c(OC)c2s1)N(C(=O)c1cc2c4c(c(O)c(OC)c2s1)N(C(C)=O)CC4)CC3	> 100	> 100	> 100	> 100	> 100		> 100	> 100	> 100							> 100				
